Molecular target: T1, Human MTAP (Homo sapiens, UniProt Q13126)
T1 construct: six-histidine tag (His6) (N); made in house; host or cells: E. coli BL21 DE3
T1 sequence (Q13126 1-283): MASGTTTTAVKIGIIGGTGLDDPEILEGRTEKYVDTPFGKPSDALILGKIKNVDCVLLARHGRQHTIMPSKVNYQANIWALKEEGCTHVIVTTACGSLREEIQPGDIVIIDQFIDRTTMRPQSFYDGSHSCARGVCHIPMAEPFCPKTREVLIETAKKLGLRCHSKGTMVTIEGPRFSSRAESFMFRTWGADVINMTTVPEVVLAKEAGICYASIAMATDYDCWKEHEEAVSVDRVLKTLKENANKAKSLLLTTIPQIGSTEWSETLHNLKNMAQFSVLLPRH
Assay: MTAP substrate assay, coupled spectrophotometric (adenine, xanthine oxidase)
Format: biochemical
Settings: 2 nM MTAP; for activity at 50 µM: 10 min, compound 50 uM, relative to MTA at 50 uM, read-out: MT-A—50: initial velocity as a percentage of the initial velocity with MTA as substrate; for MT-A—10: initial velocity as a percentage of the initial velocity with MTA as substrate: compound 10 uM, relative to MTA at 10 uM
Protocol: An enzymatic assay to determine the activity of MTAP against a given substrate was performed. Human MTAP containing an N-terminal six-histidine tag was expressed in E. coli BL21 DE3 cells. The protein was purified to homogeneity by Ni2+ affinity chromatography. Enzymatic activity was measured using a coupled spectrophotometric assay designed to monitor the reaction product adenine (Savarese, T. M., Crabtree, G. W., and Parks, R. E. Jr., (1980) Biochem. Pharmacol. 30, 189-199). Various concentrations of the indicated 5′-deoxymethylthio adenosine (MTA) or substrate were incubated in assay buffer (40 mM potassium phosphate buffer, 1 mM, and DTT 0.8 units/ml xanthine oxidase coupling enzyme) for 5 minutes at 37° C. The reaction was initiated by the addition of MTAP. The exact concentration of enzyme used varied for each substrate tested and ranged from 2 nM to 500 nM. Activity as a function of enzyme concentration was determined for each substrate tested to ensure that the appropriate enzyme concentration was used. Activity was detected by continuous monitoring of absorbance at 305 nm for 10 minutes (ΔE=15,500 M^−1).
Library compounds (10 and 50 uM) were tested using the assay described above with 2 nM MTAP enzyme. The resultant initial velocities are reported as a percentage of the initial velocity observed when MTA is the substrate. MTA controls, 10 and 50 uM concentrations, were run on each plate alongside the library compounds.

SMILES | activity at 50 µM | MT-A—10: initial velocity as a percentage of the initial velocity with MTA as substrate
CCc1ccccc1SC[C@H]1O[C@@H](n2cnc3c(N)ncnc32)[C@H](O)[C@@H]1O [2(G)(26), (2R, 3R, 4S, 5S)-2-(6-amino-9H-purin-9-yl)-5-{[(2-ethylphenyl)-thio]methyl}tetrahydro-furan-3,4-diol] | 7% | 6%
Nc1ncnc2c1ncn2[C@@H]1O[C@H](CSc2ccccc2O)[C@@H](O)[C@H]1O [2(G)(27), (2R, 3R, 4S, 5S)-2-(6-amino-9H-purin-9-yl)-5-{[(2-hydroxyphenyl)-thio]methyl}tetrahydro-furan-3,4-diol] | 23% | 7%
Cc1ccc(C)c(SC[C@H]2O[C@@H](n3cnc4c(N)ncnc43)[C@H](O)[C@@H]2O)c1 [2(G)(28)] | 4% | 6%
Nc1ncnc2c1ncn2[C@@H]1O[C@H](CSc2cccc(Br)c2)[C@@H](O)[C@H]1O [2(G)(29), (2R, 3R, 4S, 5S)-2-(6-amino-9H-purin-9-yl)-5-{[(3-bromophenyl)-thio]methyl}tetrahydro-furan-3,4-diol] | 19% | 21%
C#CCSc1nnc(SC[C@H]2O[C@@H](n3cnc4c(N)ncnc43)[C@H](O)[C@@H]2O)s1 [2(G)(30), (2R, 3R, 4S, 5S)-2-(6-amino-9H-purin-9-yl)-5-({[5-(prop-2-yn-1-ylthio)-1,3,4-thiodiazol-2-yl]thio}methyl)tetra-hydrofuran-3,4-diol] | 12% | 11%
Cn1c(O)nnc1SC[C@H]1O[C@@H](n2cnc3c(N)ncnc32)[C@H](O)[C@@H]1O [2(G)(31), (2R, 3R, 4S, 5S)-2-(6-amino-9H-purin-9-yl)-5-{[(5-hydroxy-4-methyl-4H-1,2,4-triazol-3-yl)-thio]methyl}tetrahydro-furan-3,4-diol] | 50% | 46%
Cc1cc(C)n2nc(SC[C@H]3O[C@@H](n4cnc5c(N)ncnc54)[C@H](O)[C@@H]3O)nc2n1 [2(G)(32), (2R, 3R, 4S, 5S)-2-(6-amino-9H-purin-9-yl)-5-{[(5,7-dimethyl[1,2,4]-triazolo[1,5-a]pyrimidin-2-yl)thio]methyl}tetra-hydrofuran-3,4-diol] | 7% | 6%
Nc1ncnc2c1ncn2[C@@H]1O[C@H](CSc2nccc(C(F)(F)F)n2)[C@@H](O)[C@H]1O [2(G)(33), (2R, 3R, 4S, 5S)-2-(6-amino-9H-purin-9-yl)-5-({[4-(trifluoromethyl)-pyr-imidin-2-yl]thio}methyl)-tetrahydrofuran-3,4-diol] | 36% | 28%
Cc1ccc(C(C)(C)C)cc1SC[C@H]1O[C@@H](n2cnc3c(N)ncnc32)[C@H](O)[C@@H]1O [2(G)(34), (2R, 3R, 4S, 5S)-2-(6-amino-9H-purin-9-yl)-5-{[(5-tert-butyl-2-methyl-phenyl)thio]methyl}-tetrahydrofuran-3,4-diol] | 3% | 2%
CC(C)c1ccc(SC[C@H]2O[C@@H](n3cnc4c(N)ncnc43)[C@H](O)[C@@H]2O)cc1 [2(G)(35), (2R, 3R, 4S, 5S)-2-(6-amino-9H-purin-9-yl)-5-{[(4-isopropylphenyl)-thio]methyl}tetrahydro-furan-3,4-diol] | 11% | 15%
CCOC(=O)c1cnc(SC[C@H]2O[C@@H](n3cnc4c(N)ncnc43)[C@H](O)[C@@H]2O)nc1N [2(G)(36)] | 40% | 35%
Cc1occc1SC[C@H]1O[C@@H](n2cnc3c(N)ncnc32)[C@H](O)[C@@H]1O [2(G)(37), (2R, 3R, 4S, 5S)-2-(6-amino-9H-purin-9-yl)-5-{[(2-methyl-3-furyl)thio]methyl}tetra-hydrofuran-3,4-diol] | 26% | 10%
Nc1ncnc2c1ncn2[C@@H]1O[C@H](CSCC(F)(F)F)[C@@H](O)[C@H]1O [2(G)(38), (2R, 3R, 4S, 5S)-2-(6-amino-9H-purin-9-yl)-5-{[(2,2,2-trifluoroethyl)-thio]methyl}tetrahydro-furan-3,4-diol] | 32% | 30%
CC(C)(C)OC(=O)NCCSC[C@H]1O[C@@H](n2cnc3c(N)ncnc32)[C@H](O)[C@@H]1O [2(G)(39), tert-butyl [2-({[(2S, 3S, 4R, 5R)-5-(6-amino-9H-purin-9-yl)-3,4-dihydroxytetrahydro-furan-2-yl]methyl}thio)-ethyl]carbamate] | 8% | 7%
Cc1cc(=O)oc2cc(SC[C@H]3O[C@@H](n4cnc5c(N)ncnc54)[C@H](O)[C@@H]3O)ccc12 [2(G)(40), 7-({[(2S, 3S, 4R, 5R)-5-(6-amino-9H-purin-9-yl)-3,4-dihydroxytetrahydro-furan-2-yl]methyl}thio)-4-methyl-2H-chromen-2-one] | 10% | 6%
Nc1ncnc2c1ncn2[C@@H]1O[C@H](CSc2ncc(C(F)(F)F)cc2Cl)[C@@H](O)[C@H]1O [2(G)(41), (2R, 3R, 4S, 5S)-2-(6-amino-9H-purin-9-yl)-5-({[3-chloro-5-(trifluoromethyl)pyridin-yl]thio}methyl)tetra-hydrofuran-3,4-diol] | 7% | 7%
Nc1ncnc2c1ncn2[C@@H]1O[C@H](CSc2ccc3ccccc3n2)[C@@H](O)[C@H]1O [2(G)(42), (2R, 3R, 4S, 5S)-2-(6-amino-9H-purin-9-yl)-5-[(quinolin-2-ylthio)methyl]-tetrahydrofuran-3,4-diol] | 47% | 38%
Cc1cc(C)c(C#N)c(SC[C@H]2O[C@@H](n3cnc4c(N)ncnc43)[C@H](O)[C@@H]2O)n1 [2(G)(43), 2-({[(2S, 3S, 4R, 5R)-5-(6-amino-9H-purin-9-yl)-dihydroxytetrahydro-furan-2-yl]methyl}thio)-4,6-dimethylnicotino-nitrile] | 7% | 5%
C=CCSC[C@H]1O[C@@H](n2cnc3c(N)ncnc32)[C@H](O)[C@@H]1O [2(G)(44), (2R, 3R, 4S, 5S)-2-(6-amino-9H-purin-9-yl)-5-[(allythio)methyl]tetra-hydrofuran-3,4-diol] | 82% | 77%
CC(C)SC[C@H]1O[C@@H](n2cnc3c(N)ncnc32)[C@H](O)[C@@H]1O [2(G)(45), (2R, 3R, 4S, 5S)-2-(6-amino-9H-purin-9-yl)-5-[(isopropylthio)methyl]-tetrahydrofuran-3,4-diol] | 57% | 53%
Cc1cccc2[nH]c(SC[C@H]3O[C@@H](n4cnc5c(N)ncnc54)[C@H](O)[C@@H]3O)nc12 [2(G)(46), (2R, 3R, 4S, 5S)-2-(6-amino-9H-purin-9-yl)-5-{[(4-methyl-1H-benzimidazol-2-yl)-thio]methyl}tetrahydro-furan-3,4-diol] | 45% | 42%
Nc1ncnc2c1ncn2[C@@H]1O[C@H](CSc2nc3cnccc3[nH]2)[C@@H](O)[C@H]1O [2(G)(47), (2R, 3R, 4S, 5S)-2-(6-amino-9H-purin-9-yl)-5-[(1H-imidazo[4,5-c]-pyridin-2-ylthio)methyl]-tetrahydrofuran-3,4-diol] | 50% | 49%
Cc1ccc2[nH]c(SC[C@H]3O[C@@H](n4cnc5c(N)ncnc54)[C@H](O)[C@@H]3O)nc2c1 [2(G)(48), (2R, 3R, 4S, 5S)-2-(6-amino-9H-purin-9-yl)-5-{[(5-methyl-1H-benzimidazol-2-yl)thio]-methyl}tetrahydro-furan-3,4-diol] | 5% | 3%
Nc1ncnc2c1ncn2[C@@H]1O[C@H](CSc2nc(O)c3cn[nH]c3n2)[C@@H](O)[C@H]1O [2(G)(49), (2R, 3R, 4S, 5S)-2-(6-amino-9H-purin-9-yl)-5-{[(4-hydroxy-1H-pyrazolo[3,4-d]pyrimidin-6-yl)thio]methyl}tetra-hydrofuran-3,4-diol] | 46% | 52%

From patent US20040043959A1, “Combination therapies for treating methylthioadenosine phosphorylase deficient cells” (priority 2002, published 2004)
